Legend:
Aro1DHQS = biological target: T1, Aro1DHQS (Candida albicans, UniProt Q5AME2); assay: X-ray crystal structure, […] A; type: binding; conditions: co-crystallised with 2 mM NADH and 0.5 mM ZnCl2; one NADH per chain
T1 construct: gene ARO1; N-terminal DHQS domain, residues 1-387, expressed in E. coli BL21(DE3) Gold, His6-TEV tag cut; dimer in crystal; strain SC5314 printed for the full-length clone pLC1335

Aro1EPSPS = biological target: T2, Aro1EPSPS (Candida albicans, UniProt Q5AME2); assay: X-ray crystal structure, […] A; type: binding; conditions: co-crystallised with 1 mM shikimate-3-phosphate, pH 8; closed conformation
T2 construct: gene ARO1; EPSPS domain, residues 387-844, expressed in E. coli BL21(DE3) Gold, His6-TEV tag cut; strain SC5314 printed for the full-length clone pLC1335
T2 sequence (Q5AME2 387-844): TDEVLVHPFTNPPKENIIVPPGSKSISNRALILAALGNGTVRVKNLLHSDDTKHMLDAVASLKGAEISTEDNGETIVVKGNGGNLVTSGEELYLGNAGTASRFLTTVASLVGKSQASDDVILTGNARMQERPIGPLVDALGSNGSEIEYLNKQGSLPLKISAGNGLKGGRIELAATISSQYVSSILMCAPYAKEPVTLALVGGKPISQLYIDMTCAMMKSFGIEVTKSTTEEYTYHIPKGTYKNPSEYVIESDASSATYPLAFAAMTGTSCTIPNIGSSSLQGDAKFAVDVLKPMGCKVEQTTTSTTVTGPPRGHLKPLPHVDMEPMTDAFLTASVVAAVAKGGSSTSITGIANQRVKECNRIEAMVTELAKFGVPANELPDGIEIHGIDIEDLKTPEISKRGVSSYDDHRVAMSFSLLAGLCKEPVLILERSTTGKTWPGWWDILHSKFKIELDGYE

T1 sequence (Q5AME2 1-387): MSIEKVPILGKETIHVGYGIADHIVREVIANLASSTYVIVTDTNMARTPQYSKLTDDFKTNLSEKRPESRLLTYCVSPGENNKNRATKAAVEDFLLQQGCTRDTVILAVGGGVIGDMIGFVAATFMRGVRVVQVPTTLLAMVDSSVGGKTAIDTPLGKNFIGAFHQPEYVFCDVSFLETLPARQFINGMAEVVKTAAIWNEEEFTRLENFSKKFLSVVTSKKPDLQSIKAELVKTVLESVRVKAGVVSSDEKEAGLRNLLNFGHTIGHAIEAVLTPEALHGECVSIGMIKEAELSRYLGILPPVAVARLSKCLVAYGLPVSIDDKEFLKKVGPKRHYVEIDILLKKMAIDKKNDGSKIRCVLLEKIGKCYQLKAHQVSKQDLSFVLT

Compound	X-ray crystal structure, 1.85 A (Aro1DHQS)	X-ray crystal structure, 1.85 A (Aro1EPSPS)
NC(=O)C1=CN([C@@H]2O[C@H](COP(=O)(O)OP(=O)(O)OC[C@H]3O[C@@H](n4cnc5c(N)ncnc54)[C@H](O)[C@@H]3O)[C@@H](O)[C@H]2O)C=CC1 [NADH]	one NADH molecule bound to each copy of this fragment	
O=C(O)C1=C[C@@H](OP(=O)(O)O)[C@@H](O)[C@H](O)C1 [S3P, shikimate-3-phosphate]		additional electron density corresponding to a molecule of this substrate in the cleft

— paper PMC9074039, “Molecular analysis and essentiality of Aro1 shikimate biosynthesis multi-enzyme in Candida albicans” (Life Science Alliance, 2022)
